Key:
Assay in all cases: relative viability (nuclei count vs DMSO), 5 days (fraction); higher = more cells survive
Tozasertib + Decitabine = compound: Cc1cc(Nc2cc(N3CCN(C)CC3)nc(Sc3ccc(NC(=O)C4CC4)cc3)n2)n[nH]1 [Tozasertib] + Nc1ncn([C@H]2C[C@H](O)[C@@H](CO)O2)c(=O)n1 [Decitabine] (partner 2 µM)
Method in brief: (§1)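 One day after seeding in 1536-well plates, lung cancer cell lines were dosed by pin tool. Dosing was either single-drug or a fixed anchor-drug dose plus five library-drug doses (not always all listed) in √10 steps. After 5 days, nuclei were stained in one fix-and-stain step and counted on 4× images, and relative viability is the nuclei count of treated wells over that of vehicle wells, given as the median of duplicate plates.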

Tozasertib + Phenformin = compound: Cc1cc(Nc2cc(N3CCN(C)CC3)nc(Sc3ccc(NC(=O)C4CC4)cc3)n2)n[nH]1 [Tozasertib] + N=C(N)NC(=N)NCCc1ccccc1 [Phenformin] (partner 250 µM)
Method in brief: as §1

Tozasertib + AZD7762 = compound: Cc1cc(Nc2cc(N3CCN(C)CC3)nc(Sc3ccc(NC(=O)C4CC4)cc3)n2)n[nH]1 [Tozasertib] + NC(=O)Nc1cc(-c2cccc(F)c2)sc1C(=O)N[C@H]1CCCNC1 [AZD7762] (partner 0.2 µM)
Method in brief: as §1

Tozasertib + Linsitinib = compound: Cc1cc(Nc2cc(N3CCN(C)CC3)nc(Sc3ccc(NC(=O)C4CC4)cc3)n2)n[nH]1 [Tozasertib] + C[C@]1(O)C[C@@H](c2nc(-c3ccc4ccc(-c5ccccc5)nc4c3)c3c(N)nccn32)C1 [Linsitinib] (partner 1 µM)
Method in brief: as §1

Tozasertib + Trametinib = compound: Cc1cc(Nc2cc(N3CCN(C)CC3)nc(Sc3ccc(NC(=O)C4CC4)cc3)n2)n[nH]1 [Tozasertib] + CC(=O)Nc1cccc(-n2c(=O)n(C3CC3)c(=O)c3c(Nc4ccc(I)cc4F)n(C)c(=O)c(C)c32)c1 [Trametinib] (partner 0.02 µM)
Method in brief: as §1

Cell Line | relative viability (Tozasertib + Decitabine; first compound 0.004 µM) | relative viability (Tozasertib + Decitabine; first compound 0.01265 µM) | relative viability (Tozasertib + Decitabine; first compound 0.04 µM) | relative viability (Tozasertib + Decitabine; first compound 0.1265 µM) | relative viability (Tozasertib + Phenformin; first compound 0.004 µM) | relative viability (Tozasertib + Phenformin; first compound 0.01265 µM) | relative viability (Tozasertib + Phenformin; first compound 0.04 µM) | relative viability (Tozasertib + Phenformin; first compound 0.1265 µM) | relative viability (Tozasertib + AZD7762; first compound 0.004 µM) | relative viability (Tozasertib + AZD7762; first compound 0.01265 µM) | relative viability (Tozasertib + AZD7762; first compound 0.04 µM) | relative viability (Tozasertib + AZD7762; first compound 0.1265 µM) | relative viability (Tozasertib + Linsitinib; first compound 0.004 µM) | relative viability (Tozasertib + Linsitinib; first compound 0.01265 µM) | relative viability (Tozasertib + Linsitinib; first compound 0.04 µM) | relative viability (Tozasertib + Linsitinib; first compound 0.1265 µM) | relative viability (Tozasertib + Trametinib; first compound 0.004 µM) | relative viability (Tozasertib + Trametinib; first compound 0.01265 µM) | relative viability (Tozasertib + Trametinib; first compound 0.04 µM) | relative viability (Tozasertib + Trametinib; first compound 0.1265 µM)
LCLC-103H | 0.689 | 0.621 | 0.775 | 0.683 | 0.373 | 0.343 | 0.323 | 0.359 | 0.724 | 0.842 | 0.846 | 0.732 | 1.07 | 1.03 | 0.987 | 1.34 | 0.659 | 0.71 | 0.675 | –
LK-2 | 0.428 | 0.291 | 0.363 | 0.141 | 0.37 | 0.493 | 0.412 | 0.212 | 0.466 | 0.54 | 0.624 | 0.138 | 0.639 | 0.541 | 0.442 | 0.272 | 0.859 | 0.646 | 0.739 | 0.353
LOU-NH91 | 0.681 | 0.791 | 0.812 | 0.762 | – | 0.672 | 0.797 | 0.559 | 0.733 | 0.719 | 0.838 | 0.64 | 0.573 | 0.954 | 1.03 | 0.947 | 0.692 | 0.811 | 0.838 | 0.793
LU99A | 0.968 | 0.859 | 0.785 | 0.504 | 0.903 | 0.819 | 0.773 | 0.646 | 0.314 | 0.328 | 0.306 | 0.169 | 0.655 | 0.448 | 0.412 | 0.292 | 0.545 | 0.504 | 0.494 | 0.373
LXF-289 | 0.378 | 0.405 | 0.337 | 0.262 | 0.589 | 0.511 | 0.507 | 0.383 | 1.12 | 1.02 | 1.04 | 0.619 | 0.994 | 0.883 | 0.868 | 0.554 | 0.69 | 0.625 | 0.685 | 0.571
NCI-H23 | 0.332 | 0.298 | 0.276 | 0.242 | 0.76 | – | 0.85 | 0.745 | 0.199 | 0.259 | 0.216 | 0.186 | 0.653 | 0.519 | 0.55 | 0.291 | 0.356 | 0.435 | 0.426 | 0.223
NCI-H322M | 0.656 | 0.661 | 0.675 | 0.618 | 0.798 | – | 0.799 | 0.481 | 0.497 | 0.507 | 0.572 | 0.48 | 0.893 | 0.998 | 0.923 | 0.848 | 0.498 | – | 0.573 | 0.458
NCI-H358 | 0.246 | 0.196 | 0.228 | 0.0965 | 0.353 | 0.295 | 0.354 | 0.0988 | 0.393 | – | 0.475 | 0.227 | 0.787 | 0.69 | 0.651 | 0.194 | 0.137 | 0.0985 | 0.132 | 0.0814
NCI-H441 | 0.226 | 0.222 | 0.25 | 0.261 | 0.955 | 0.852 | 0.937 | 0.768 | 1.61 | 0.989 | 1.17 | 1.08 | 0.496 | 0.551 | 0.616 | 0.353 | 0.575 | 0.393 | 0.428 | 0.318
NCI-H460 | 0.456 | 0.53 | 0.493 | 0.284 | 0.529 | 0.463 | 0.578 | 0.159 | 0.548 | 0.657 | 0.737 | – | 0.738 | 0.751 | 0.787 | 0.149 | 0.132 | 0.129 | 0.113 | 0.0704
NCI-H596 | 0.984 | 0.948 | 0.853 | 0.888 | – | 0.808 | 0.968 | 0.834 | – | – | 1.2 | 0.871 | 1.08 | 0.979 | 1.15 | 1.03 | 0.992 | 0.877 | 0.826 | 0.622
NCI-H647 | 0.43 | 0.402 | 0.322 | 0.25 | 0.687 | 0.526 | 0.602 | 0.177 | 0.567 | 0.418 | 0.43 | 0.0736 | 0.854 | 1.33 | 1.22 | – | 0.459 | 0.374 | 0.524 | 0.32
NCI-H650 | 0.38 | 0.288 | 0.334 | 0.284 | 0.497 | 0.445 | 0.444 | 0.379 | 0.935 | 1.07 | 0.797 | 1.05 | 0.967 | 0.771 | 0.754 | 0.513 | 1.06 | 0.918 | 0.894 | 0.823
NCI-H727 | 0.942 | – | 0.803 | 0.645 | 0.588 | 0.466 | 0.537 | 0.375 | 0.446 | 0.481 | 0.716 | 0.455 | 0.258 | 0.287 | 0.368 | 0.236 | 0.358 | 0.395 | 0.38 | 0.37
NCI-H838 | 0.464 | 0.458 | 0.453 | 0.253 | 0.702 | 0.514 | 0.606 | 0.177 | 0.881 | 0.971 | 0.925 | – | 1.07 | 0.972 | 1.15 | 0.861 | 0.528 | 0.453 | 0.657 | 0.246
NCI-H1355 | 0.357 | 0.35 | 0.33 | 0.357 | 0.469 | 0.424 | 0.459 | 0.367 | 0.76 | 0.698 | 0.77 | 0.661 | 0.751 | 0.816 | 0.912 | 0.722 | 0.43 | 0.436 | 0.465 | 0.402
NCI-H1395 | 0.724 | 0.674 | 0.673 | 0.524 | 0.46 | 0.429 | 0.47 | 0.359 | 0.385 | 0.414 | 0.389 | 0.397 | 1.57 | 0.974 | 1.16 | 0.75 | 1.1 | 0.972 | 1.07 | 0.638
NCI-H1437 | 0.614 | 0.49 | 0.584 | 0.359 | 0.312 | 0.301 | 0.297 | 0.2 | 1.14 | 1.16 | 1.01 | 1.14 | 1.09 | 0.971 | 1 | 0.779 | 0.562 | 0.422 | 0.54 | 0.294
NCI-H1651 | 0.608 | 0.623 | 0.611 | 0.437 | 0.319 | 0.339 | 0.316 | 0.267 | 0.469 | 0.464 | 0.498 | 0.422 | 1.19 | 0.899 | 0.972 | 0.923 | 0.884 | 0.785 | 0.907 | –
NCI-H1666 | 0.746 | 0.68 | 0.678 | 0.521 | 0.605 | 0.558 | 0.562 | 0.464 | 0.941 | 0.761 | 0.903 | 0.671 | 0.835 | 0.854 | 0.861 | 0.64 | 0.79 | 0.86 | 0.863 | 0.727
NCI-H1734 | 0.501 | 0.51 | 0.561 | 0.401 | 0.41 | 0.432 | 0.374 | 0.241 | 0.506 | 0.559 | 0.532 | 0.228 | 0.894 | 0.938 | 0.938 | 0.616 | – | 0.793 | 0.678 | 0.403
NCI-H1755 | 0.744 | – | 0.62 | 0.644 | 0.593 | 0.597 | 0.592 | 0.483 | 0.46 | 0.432 | 0.406 | 0.445 | 0.976 | 0.948 | 0.999 | 0.865 | 0.733 | 0.696 | 0.849 | 0.742
NCI-H1792 | 0.601 | 0.534 | 0.482 | 0.505 | 0.325 | – | 0.423 | 0.209 | 0.902 | 0.588 | 0.904 | 0.69 | 0.461 | 0.398 | 0.528 | 0.331 | 0.481 | 0.412 | 0.754 | 0.35
NCI-H1793 | 0.555 | 0.495 | 0.508 | 0.397 | 0.33 | 0.427 | 0.414 | 0.458 | 0.405 | 0.425 | 0.59 | 0.486 | 0.909 | 0.764 | 0.853 | 0.625 | 0.442 | 0.385 | 0.415 | 0.328
NCI-H1915 | 0.268 | 0.263 | 0.236 | 0.261 | 0.381 | 0.324 | 0.336 | 0.321 | 0.75 | 0.718 | 0.659 | 0.493 | 1.1 | 1.06 | – | 1.05 | 0.261 | 0.298 | 0.336 | 0.264
NCI-H1944 | 0.404 | 0.396 | 0.403 | 0.349 | 0.203 | 0.211 | 0.211 | 0.167 | 0.403 | 0.479 | 0.443 | 0.327 | 1.12 | 1.25 | 1.18 | 0.798 | 0.396 | 0.392 | 0.446 | 0.306
NCI-H1975 | 0.371 | 0.462 | 0.382 | 0.36 | 0.444 | 0.432 | 0.428 | 0.366 | 0.93 | 0.672 | 0.727 | 0.612 | 0.961 | 1.06 | 1.04 | 0.953 | 0.385 | 0.321 | 0.826 | 0.322
